# Experimental data: patent US20250179045A1, “LPAR1 ANTAGONISTS AND USES THEREOF” (Contineum Therapeutics, Inc., priority 2021, published 2025)
# Biological target: human LPA1 (Homo sapiens, UniProt Q92633)
# Test: In vitro functional assay of lysophosphatidic acid receptor 1 activity (calcium flux)
# Assay type: cell-based
# Details: B103 cells stably expressing human LPA1; Fluo-4 NW calcium flux after lysophosphatidic acid (18:1) at EC80; compounds 100 pM to 10 μM; read-out: LPA1 IC50
# Experimental: In vitro functional assay of lysophosphatidic acid receptor 1 activity
# Primary compound plates were prepared in 100% DMSO (Sigma-Aldrich), secondary compound plates were prepared at 10× concentration in DiVEM (Invitrogen), and tertiary compound plates were prepared at 3x concentration in assay buffer containing HBSS (no Ca^+2/Mg^+2, Invitrogen) and 0.1% BSA (Sigma-Aldrich). Fluo-4 NW calcium assay dye (Invitrogen) was prepared as per manufacturer's recommendations in assay buffer. B103 cells stably expressing human LPA1(J. Chun lab, UCSD) were grown to confluency in DMEM media (Invitrogen) containing 10% FBS (ATCC), […] (Sigma-Aldrich) and […] Geneticin (Sigma-Aldrich), and detached with Accutase (Sigma-Aldrich) prior to assay. The freshly detached cells were resuspended in growth media and plated in black, clear-bottom 96-well plates (Costar) containing compound (i.e., secondary compound plate) at a density of 5×10^4 cells/well. Once plated, cells were left at room temperature for 30 minutes and then transferred to a 37° C., […] incubator for 24 hours. After 24 hours, the growth media was then removed and freshly prepared Fluo-4 NW calcium assay dye was added to cells. Compounds (i.e. tertiary compound plates) were then added back to the dye/cells, returned to the incubator for 30 minutes, and then kept at room temperature for an additional 30 minutes. Finally, lysophosphatidic acid (18:1) at the EC80 concentration was added and calcium flux measured using FlexStation 3 (Molecular Devices). Sigmoidal dose-response curves were generated by measuring […] over 45 sec and calculating the area under the curve. Dose response curves and IC50 values were generated using Prism (GraphPad). Compounds were tested at a final concentration range of 100 pM to 10 μM in 0.10% DMSO.
# Sequence of human LPA1 (Q92633 whole entry): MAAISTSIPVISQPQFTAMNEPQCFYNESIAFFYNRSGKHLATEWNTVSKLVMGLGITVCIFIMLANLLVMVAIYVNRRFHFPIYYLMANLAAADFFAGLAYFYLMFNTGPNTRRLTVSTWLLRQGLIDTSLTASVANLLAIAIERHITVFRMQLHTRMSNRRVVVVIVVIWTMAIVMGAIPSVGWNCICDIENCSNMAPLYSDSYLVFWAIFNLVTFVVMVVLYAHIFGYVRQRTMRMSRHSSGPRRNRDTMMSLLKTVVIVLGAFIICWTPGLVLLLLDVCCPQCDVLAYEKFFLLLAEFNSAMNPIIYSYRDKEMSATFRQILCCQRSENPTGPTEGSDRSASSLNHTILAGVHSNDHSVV
row,IC50,SMILES
1,< 10 nM,"Cc1ccc(NC(=O)C2(c3ccccc3C(C)C)CC(CC(=O)O)C2)c(OC(F)F)n1 (mixture of isomers) [Example 45, 2-(3-((2-(difluoromethoxy)-6-methylpyridin-3-yl)carbamoyl)-3-(2-isopropylphenyl)cyclobutyl)acetic acid]"
2,10 to 100 nM,"COC[C@H](C)Oc1cc(Cl)ncc1NC(=O)C1(c2ccccc2C(C)C)COC1 [Example 34, (S)-N-(6-chloro-4-((1-methoxypropan-2-yl)oxy)pyridin-3-yl)-3-(2-isopropylphenyl)oxetane-3-carboxamide]"
3,100 to 1000 nM,"COc1ccc(NC(=O)C2(c3ccccc3C(C)C)CCC(C(N)=O)CC2)c(OC(F)F)n1 (mixture of isomers) [Example 96, N^1-(2-(difluoromethoxy)-6-methoxypyridin-3-yl)-1-(2-isopropylphenyl)cyclohexane-1,4-dicarboxamide]"
4,> 1000 nM,"CC(=O)N1CC2(C1)CC(C(=O)Nc1ccc(C)nc1OC(F)F)(c1ccccc1C(C)C)C2 [Example 74, 2-acetyl-N-(2-(difluoromethoxy)-6-methylpyridin-3-yl)-6-(2-isopropylphenyl)-2-azaspiro[3.3]heptane-6-carboxamide]"
5,100 to 1000 nM,"CC(C)c1ccccc1C1(C(=O)Nc2cnc(C(F)F)cc2OC(F)F)CC(=O)N(C)C1 (stereo not shown) [Example 4, N-(4-(difluoromethoxy)-6-(difluoromethyl)pyridin-3-yl)-3-(2-isopropylphenyl)-1-methyl-5-oxopyrrolidine-3-carboxamide]"
6,10 to 100 nM,"CC(C)c1ccccc1C1(C(=O)Nc2ccc(Br)cc2OC(F)F)CNC(=O)C1 (stereo not shown) [Example 105, N-(4-bromo-2-(difluoromethoxy)phenyl)-3-(2-isopropylphenyl)-5-oxopyrrolidine-3-carboxamide]"
7,100 to 1000 nM,"COc1ccc(NC(=O)C2(c3ccccc3C(C)C)CCC(S(C)(=O)=O)CC2)c(OC(F)F)n1 (stereo not shown) [Example 100, N-(2-(difluoromethoxy)-6-methoxypyridin-3-yl)-1-(2-isopropylphenyl)-4-(methylsulfonyl)cyclohexane-1-carboxamide]"
8,10 to 100 nM,"Cc1ccc(NC(=O)C2(c3ccccc3C(C)C)CNC(=O)C2)c(OC(F)F)c1 (stereo not shown) [Example 109, N-(2-(difluoromethoxy)-4-methylphenyl)-3-(2-isopropylphenyl)-5-oxopyrrolidine-3-carboxamide]"
9,100 to 1000 nM,"COc1ccc(NC(=O)C2(c3ccccc3C(C)C)CCC(NC(C)=O)CC2)c(OC(F)F)n1 (mixture of isomers) [Example 85, 4-acetamido-N-(2-(difluoromethoxy)-6-methoxypyridin-3-yl)-1-(2-isopropylphenyl)cyclohexane-1-carboxamide]"
10,> 1000 nM,"COc1nc(Cl)ccc1NC(=O)C1(c2ccccc2C(C)C)COC1 [Example 28, N-(6-chloro-2-methoxypyridin-3-yl)-3-(2-isopropylphenyl)oxetane-3-carboxamide]"
11,100 to 1000 nM,"Cc1ccc(NC(=O)C2(c3ccccc3C(C)C)CC(O)C2)c(OC(F)F)n1 (stereo not shown) [Example 58, N-(2-(difluoromethoxy)-6-methylpyridin-3-yl)-3-hydroxy-1-(2-isopropylphenyl)cyclobutane-1-carboxamide]"
12,10 to 100 nM,"Cc1ccc(NC(=O)C2(c3ccccc3C(C)C)CC(CO)C2)c(OC(F)F)n1 (stereo not shown) [Example 59, N-(2-(difluoromethoxy)-6-methylpyridin-3-yl)-3-(hydroxymethyl)-1-(2-isopropylphenyl)cyclobutane-1-carboxamide]"
13,100 to 1000 nM,"Cc1ccc(NC(=O)C2(c3ccccc3C(C)C)CC(CS(C)(=O)=O)C2)c(OC(F)F)n1 (stereo not shown) [Example 64, N-(2-(difluoromethoxy)-6-methylpyridin-3-yl)-1-(2-isopropylphenyl)-3-((methylsulfonyl)methyl)cyclobutane-1-carboxamide]"
14,> 1000 nM,"COc1cc(OC(F)F)c(NC(=O)C2(c3ccccc3C(C)C)CC(=O)N(C)C2)cn1 (stereo not shown) [Example 5, N-(4-(difluoromethoxy)-6-methoxypyridin-3-yl)-3-(2-isopropylphenyl)-1-methyl-5-oxopyrrolidine-3-carboxamide]"
15,100 to 1000 nM,"Cc1ccc(NC(=O)C2(c3ccccc3C(C)C)CC(C)(O)C2)c(OC(F)F)n1 (single isomer, unassigned) [Example 51-isomer A, N-(2-(difluoromethoxy)-6-methylpyridin-3-yl)-3-hydroxy-1-(2-isopropylphenyl)-3-methylcyclobutane-1-carboxamide]"
16,10 to 100 nM,"COC[C@H](C)Oc1nc(OC)ccc1NC(=O)C1(c2ccccc2C(C)C)COC1 [Example 31, (S)-3-(2-isopropylphenyl)-N-(6-methoxy-2-((1-methoxypropan-2-yl)oxy)pyridin-3-yl)oxetane-3-carboxamide]"

row,IC50,SMILES
1,10 to 100 nM,"Cc1ccc(NC(=O)C2(c3ccccc3C(C)C)CNC(=O)C2)c(OC(F)F)n1 (stereo not shown) [Example 9, N-(2-(difluoromethoxy)-6-methylpyridin-3-yl)-3-(2-isopropylphenyl)-5-oxopyrrolidine-3-carboxamide]"
2,10 to 100 nM,"COc1cc(C)ccc1NC(=O)C1(c2ccccc2C(C)C)CNC(=O)C1 (stereo not shown) [Example 101, 3-(2-isopropylphenyl)-N-(2-methoxy-4-methylphenyl)-5-oxopyrrolidine-3-carboxamide]"
3,10 to 100 nM,"CC(C)c1ccccc1C1(C(=O)Nc2ccc(Br)cc2OC(F)F)CC(=O)N(C)C1 (stereo not shown) [Example 87, N-(4-bromo-2-(difluoromethoxy)phenyl)-3-(2-isopropylphenyl)-1-methyl-5-oxopyrrolidine-3-carboxamide]"
4,< 10 nM,"COc1ccc(NC(=O)C2(c3ccccc3C(C)C)CC(O)(C(F)(F)C(=O)O)C2)c(OC(F)F)n1 (single isomer, unassigned) [Example 54-isomer A, 2-(3-((2-(difluoromethoxy)-6-methoxypyridin-3-yl)carbamoyl)-1-hydroxy-3-(2-isopropylphenyl)cyclobutyl)-2,2-difluoroacetic acid]"
5,100 to 1000 nM,"CC(C)c1ccccc1C1(C(=O)Nc2ncc(Cl)cc2OC(F)F)CC(=O)N(C)C1 (single isomer, unassigned) [Example 7, N-(5-chloro-3-(difluoromethoxy)pyridin-2-yl)-3-(2-isopropylphenyl)-1-methyl-5-oxopyrrolidine-3-carboxamide]"
6,< 10 nM,"COc1ccc(NC(=O)C2(c3ccccc3C(C)C)CNC(=O)C2)c(OC(F)F)n1 (single isomer, unassigned) [Example 8, N-(2-(difluoromethoxy)-6-methoxypyridin-3-yl)-3-(2-isopropylphenyl)-5-oxopyrrolidine-3-carboxamide]"
7,10 to 100 nM,"COc1ccc(NC(=O)C2(c3ccccc3C(C)C)COC2)c(OC(C)C)n1 [Example 30, N-(2-isopropoxy-6-methoxypyridin-3-yl)-3-(2-isopropylphenyl)oxetane-3-carboxamide]"
8,10 to 100 nM,"Cc1ccc(NC(=O)C2(c3ncccc3C(C)C)CC(CC(=O)O)C2)c(OC(F)F)n1 (stereo not shown) [Example 48, 2-(3-((2-(difluoromethoxy)-6-methylpyridin-3-y1)carbamoyl)-3-(3-isopropylpyridin-2-yl)cyclobutyl)acetic acid]"
9,100 to 1000 nM,"Cc1ccc(NC(=O)C2(c3ncccc3C(C)C)COC2)c(OC(F)F)n1 [Example 37, N-(2-(difluoromethoxy)-6-methylpyridin-3-yl)-3-(3-isopropylpyridin-2-yl)oxetane-3-carboxamide]"
10,10 to 100 nM,"COc1cc(Br)ccc1NC(=O)C1(c2ccccc2C(C)C)CNC(=O)C1 (stereo not shown) [Example 104, N-(4-bromo-2-methoxyphenyl)-3-(2-isopropylphenyl)-5-oxopyrrolidine-3-carboxamide]"
11,< 10 nM,"C#CC1(O)CCC(C(=O)Nc2ccc(OC)nc2OC(F)F)(c2ccccc2C(C)C)CC1 (stereo not shown) [Example 82, N-(2-(difluoromethoxy)-6-methoxypyridin-3-yl)-4-ethynyl-4-hydroxy-1-(2-isopropylphenyl)cyclohexane-1-carboxamide]"
12,100 to 1000 nM,"COc1cc(CF)ccc1NC(=O)C1(c2ccccc2C(C)C)CNC(=O)C1 (stereo not shown) [Example 115, N-(4-(fluoromethyl)-2-methoxyphenyl)-3-(2-isopropylphenyl)-5-oxopyrrolidine-3-carboxamide]"
13,100 to 1000 nM,"COc1cnc(NC(=O)C2(c3ccccc3C(C)C)COC2)c(OC(F)F)c1 [Example 35, N-(3-(difluoromethoxy)-5-methoxypyridin-2-yl)-3-(2-isopropylphenyl)oxetane-3-carboxamide]"
14,100 to 1000 nM,"Cc1ccc(NC(=O)C2(c3ccccc3C(C)C)CC(C(=O)N(C)C)C2)c(OC(F)F)n1 (stereo not shown) [Example 66, N^1-(2-(difluoromethoxy)-6-methylpyridin-3-yl)-1-(2-isopropylphenyl)-N^3,N^3-dimethylcyclobutane-1,3-dicarboxamide]"
15,10 to 100 nM,"Cc1ccc(NC(=O)C2(c3ccccc3C(C)C)CC(=O)N(C)C2)c(OC(F)F)n1 (stereo not shown) [Example 3, N-(2-(difluoromethoxy)-6-methylpyridin-3-yl)-3-(2-isopropylphenyl)-1-methyl-5-oxopyrrolidine-3-carboxamide]"
